Data on one sequence can be found in publication PMC7495481, “Sequence specificity analysis of the SETD2 protein lysine methyltransferase and discovery of a SETD2 super-substrate” (Communications Biology, 2020).

Holding throughout (assay type): biochemical
The target in experiment [1] is T1, SETD2 (Homo sapiens, UniProt Q9BYW2).
T1 construct: SETD2 catalytic SET domain (amino acids 1347–1711, UniProt No: Q9BYW2); made in house; host or cells: E. coli
T1 sequence (Q9BYW2 1347-1711): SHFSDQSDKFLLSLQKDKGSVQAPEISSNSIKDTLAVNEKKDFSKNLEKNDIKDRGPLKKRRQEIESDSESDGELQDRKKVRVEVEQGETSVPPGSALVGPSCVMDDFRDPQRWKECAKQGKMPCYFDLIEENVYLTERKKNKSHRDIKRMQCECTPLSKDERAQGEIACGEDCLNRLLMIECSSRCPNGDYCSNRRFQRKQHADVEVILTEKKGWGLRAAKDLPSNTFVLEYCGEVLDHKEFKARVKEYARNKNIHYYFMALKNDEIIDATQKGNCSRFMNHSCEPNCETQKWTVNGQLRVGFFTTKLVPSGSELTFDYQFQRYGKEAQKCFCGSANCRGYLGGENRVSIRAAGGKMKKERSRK
Kind of experiment: Single turnover time course of ssK36 methylation. Particulars: 5 µM substrate, 6 µM enzyme; average ± SEM. On the procedure:
(§1) The H3K36 (27–43) and the H3K36M (27–43) peptides were purchased from Intavis AG (Köln, Germany) and the ssK36 peptide (29–43) and the ssK36M peptide (29–43) were from Innovative Peptide Solutions (Berlin, Germany). If not indicated otherwise, peptide methylation reactions were performed using 20 µM peptide and 6 µM SETD2 in 20 µl methylation buffer supplemented with 0.76 µM radioactive labeled AdoMet (PerkinElmer) for 3 h at 25 °C. The reactions were halted by the addition of Tricine-SDS-PAGE loading buffer and incubation for 5 min at 95 °C. Afterward the samples were separated by Tricine-SDS-PAGE, which was followed by the incubation of the gel in amplify NAMP100V (GE Healthcare) for 45 min on a shaker and drying of the gel for 2 h at 55 °C in vacuum. The signals of the transferred radioactive labeled methyl groups were detected by autoradiography using a hyperfilm^TM high performance autoradiography film (GE Healthcare) at −80 °C in the dark. The film was developed with an Optimax Typ TR machine after different exposure times.
Time courses of ssK36 methylation were analyzed by fitting to an exponential reaction progress curve (Eq. 1). Initial rates of single turnover reactions were determined using the first derivative of eq. 1 at t = 0. Signal=BL+F×1−exp^−kst×t […]

In a further experiment the test system is NSD2. The experiment is described as follows: Peptide methylation by NSD2. The conditions noted are these: peer review file. From the text: (§2) We, therefore, repeated the peptide array used for the development of the SETD2 super-substrate, which is shown in Figure 2A of our manuscript for NSD1 and NSD2. […]
(§3) that this mutation specifically increases the activity of these two enzymes. In contrast, with […]
(§4) combined with H39N/K. Importantly, in case of SETD2 H39N only has an effect in the context of the other mutations in ssK36. We conclude that the ssK36 substrate is specifically optimized for SETD2 as expected given the workflow of our experiments. The finding that H39N increases the activity of NSD1 and NSD2 is interesting and deserves additional work. It […]
(§5) conducted with NSD1 and NSD2. The SETD2 panel is taken from the manuscript for comparison. The table indicates the peptide compositions. Note, the gradual increase of methylation with increasing number of mutations in the case of SETD2. In case of NSD1 and NSD2, increased methylation is solely due to the H39N mutation , which has a weaker […]

A further experiment has as its system SUV39H2. Kind of experiment: Methylation of ssK36 by SUV39H2. The conditions noted are these: peer review file Figure R1.
The target of experiment [2] is T1, SETD2. The experiment is described as follows: Steady-state peptide methylation kinetics (Michaelis-Menten). Particulars: 20–320 µM peptide; Michaelis-Menten fit; two independent experiments. On the procedure:
To further characterize the methylation kinetics of the super-substrate peptide, steady-state methylation experiments were performed using the super-substrate peptide in different concentrations ranging from 20 to 320 µM (Supplementary Fig. 3a). […] To further study the difference in peptide binding, inhibition of SETD2 by ssK36M and H3K36M inhibitor peptides was investigated (Supplementary Fig. 3b and c).
as §1, with “Afterward the samples were separated by Tricine-SDS-PAGE, which was followed by the incubation of the gel in amplify NAMP100V (GE Healthcare) for 45 min on a shaker and drying of the gel for 2 h at 55 °C in vacuum.” left out, “The film was developed with an Optimax Typ TR machine after different exposure times.” left out
Multiple turnover kinetics were determined using variable peptide concentrations (20–320 µM). […]

The subject of the next experiment is NSD1. Kind of experiment: Peptide methylation by NSD1. Particulars: peer review file.
From the text: as §2, §3, §4, §5

As to “APRFGGVKRPNRYRP [ssK36, super-substrate peptide with four amino acid exchanges (A31R, T32F, K37R, H39N)]”, the “single turnover methylation rate constant kst” value at SETD2 [1] worked out at 4.07 ± 0.39 h⁻¹. Also, the “methylation by NSD2” value with NSD2 was “better substrate than H3K36”. In addition, the “methylation by SUV39H2” value in the experiment on SUV39H2 is “Lack of methylation”. Moreover, at SETD2 [2], the Km (commonly the concentration of substrate that gives half-maximal velocity) amounted to 45 µM. The “methylation by NSD1” value with NSD1 is recorded as “better substrate than H3K36”.
